Measured values from publication PMC10539361, “Allosteric modulation of the fish taste receptor type 1 (T1R) family by the extracellular chloride ion” (Scientific Reports, 2023).

Columns and labels:
[1] = target: T1, zfT1R2b/zfT1R3 (Danio rerio, UniProt A0A8M1NDZ5+Q2MHK9); experiment: cell-based
T1 sequence (A0A8M1NDZ5 18-823): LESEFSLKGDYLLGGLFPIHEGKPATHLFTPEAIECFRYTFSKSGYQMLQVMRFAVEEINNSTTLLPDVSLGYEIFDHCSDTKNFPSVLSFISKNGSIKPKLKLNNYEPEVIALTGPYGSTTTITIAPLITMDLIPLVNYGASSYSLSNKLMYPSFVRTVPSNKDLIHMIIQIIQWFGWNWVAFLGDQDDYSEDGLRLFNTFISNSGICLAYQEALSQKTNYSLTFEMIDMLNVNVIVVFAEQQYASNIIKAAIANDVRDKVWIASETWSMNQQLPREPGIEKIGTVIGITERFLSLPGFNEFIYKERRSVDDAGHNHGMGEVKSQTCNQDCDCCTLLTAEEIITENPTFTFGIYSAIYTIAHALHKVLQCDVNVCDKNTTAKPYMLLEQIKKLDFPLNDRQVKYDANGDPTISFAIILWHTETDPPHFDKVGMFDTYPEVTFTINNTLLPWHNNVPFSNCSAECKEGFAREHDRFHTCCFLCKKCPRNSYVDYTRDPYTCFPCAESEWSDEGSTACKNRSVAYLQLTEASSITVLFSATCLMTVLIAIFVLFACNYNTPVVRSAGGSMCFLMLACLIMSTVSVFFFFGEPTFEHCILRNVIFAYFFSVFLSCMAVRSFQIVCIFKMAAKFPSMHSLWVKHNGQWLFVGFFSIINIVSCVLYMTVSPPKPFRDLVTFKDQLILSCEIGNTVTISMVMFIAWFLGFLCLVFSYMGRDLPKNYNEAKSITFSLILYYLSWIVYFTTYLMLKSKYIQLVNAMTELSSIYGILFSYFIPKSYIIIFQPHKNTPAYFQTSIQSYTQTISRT
T1 sequence (Q2MHK9 25-850): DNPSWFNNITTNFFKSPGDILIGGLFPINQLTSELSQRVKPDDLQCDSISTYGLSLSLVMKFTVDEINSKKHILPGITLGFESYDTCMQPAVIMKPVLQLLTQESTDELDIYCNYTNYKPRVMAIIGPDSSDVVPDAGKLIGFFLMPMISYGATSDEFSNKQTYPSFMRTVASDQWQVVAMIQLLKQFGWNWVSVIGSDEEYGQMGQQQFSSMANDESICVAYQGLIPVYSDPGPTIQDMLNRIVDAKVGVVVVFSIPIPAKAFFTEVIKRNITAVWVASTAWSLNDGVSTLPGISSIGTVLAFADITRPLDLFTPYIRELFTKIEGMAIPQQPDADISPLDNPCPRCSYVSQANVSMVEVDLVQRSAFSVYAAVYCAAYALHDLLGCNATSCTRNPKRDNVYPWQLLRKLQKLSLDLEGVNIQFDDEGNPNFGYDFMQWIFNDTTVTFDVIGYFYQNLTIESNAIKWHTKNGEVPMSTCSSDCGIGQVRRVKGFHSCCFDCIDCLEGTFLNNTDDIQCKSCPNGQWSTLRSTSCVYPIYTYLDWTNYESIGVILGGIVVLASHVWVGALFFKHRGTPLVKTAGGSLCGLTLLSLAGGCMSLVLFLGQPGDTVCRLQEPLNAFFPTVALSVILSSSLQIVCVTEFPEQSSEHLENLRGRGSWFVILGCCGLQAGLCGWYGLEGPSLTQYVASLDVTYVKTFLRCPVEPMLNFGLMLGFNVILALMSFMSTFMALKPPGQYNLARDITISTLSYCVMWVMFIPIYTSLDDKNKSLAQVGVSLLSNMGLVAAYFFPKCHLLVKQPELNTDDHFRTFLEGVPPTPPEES
Method: (§1) The buffers with lower Cl^− were prepared by progressively replacing NaCl, KCl, CaCl2 and MgCl2 in the buffer with gluconate equivalents[20]. The pH was adjusted to 7.4 with NaOH. Ligands were diluted with the assay buffers at the desired concentrations.
(§2) Measurements of the responses of the cells by cell-based assay based on the intracellular Ca^2+ mobilization were carried out as described previously with some modifications[20],[34],[46],[47]. […] The cells were seeded in 96-well plates (clear-bottomed CellBIND surface plate, Corning, Glendale, AZ, USA) coated with ε-poly-L-lysine (Cosmo Bio, Tokyo, Japan) at approximately 70,000 cells per well. After 20 h, the medium was removed and replaced with high Cl^− buffer. After 3 h 30 min incubation at 27 °C, cells were loaded with 5 µM calcium-indicator dye Fluo-8 AM (AAT Bioquest, Sunnyvale, CA, USA) diluted in high Cl^− buffer. After incubation for 30 min at 27 °C, the cells were washed with buffers containing appropriate concentrations of Cl^−. The cellular assay was initiated after 3–5 min of resting and was completed within 5 min. The measurements were made using FlexStation 3 (Molecular Devices, Sunnyvale, CA, USA) at 27 °C. Fluorescence changes (i.e., excitation at 485 nm and emission at 525 nm with a cutoff at 515 nm) were monitored at 2 s intervals. A 100-µL aliquot of assay buffer supplemented with 2 × ligands was added at 20 s, and scanning was continued for an additional 40 s. The response of each well was determined as ∆RFU (delta relative fluorescent units), which was calculated as (maximum fluorescent value)—(minimum fluorescent value). […] Such normalized data from more than three independent experiments are reported as the mean ± standard error of the mean (SEM). Dose‒response fitting curves were calculated by Prism 9 (GraphPad Software, San Diego, CA) using nonlinear regression (log(agonist) vs. response—variable slope), based on the integrated data from the several independent experiments.

[2] = test system: mfT1R2b E260K/mfT1R3; format: cell-based, medaka fish; conditions: 10 mM vs high Cl- buffer
Method: as §1
(§3) Measurements of the responses of the cells by cell-based assay based on the intracellular Ca^2+ mobilization were carried out as described previously with some modifications[20],[34],[46],[47]. […] The cells were seeded in 96-well plates (clear-bottomed CellBIND surface plate, Corning, Glendale, AZ, USA) coated with ε-poly-L-lysine (Cosmo Bio, Tokyo, Japan) at approximately 70,000 cells per well. After 20 h, the medium was removed and replaced with high Cl^− buffer. […] Fluorescence changes (i.e., excitation at 485 nm and emission at 525 nm with a cutoff at 515 nm) were monitored at 2 s intervals. […] The response of each well was determined as ∆RFU (delta relative fluorescent units), which was calculated as (maximum fluorescent value)—(minimum fluorescent value). […] Dose‒response fitting curves were calculated by Prism 9 (GraphPad Software, San Diego, CA) using nonlinear regression (log(agonist) vs. response—variable slope), based on the integrated data from the several independent experiments.

[3] = target: T2, zfT1R2a/zfT1R3 (Danio rerio, UniProt A0A8M1N8F9+Q2MHK9); experiment: Ca2+ mobilization dose-response assay, stable cells expressing zfT1R2a/zfT1R3 with G16gust44
T2 sequence (A0A8M1N8F9 26-825): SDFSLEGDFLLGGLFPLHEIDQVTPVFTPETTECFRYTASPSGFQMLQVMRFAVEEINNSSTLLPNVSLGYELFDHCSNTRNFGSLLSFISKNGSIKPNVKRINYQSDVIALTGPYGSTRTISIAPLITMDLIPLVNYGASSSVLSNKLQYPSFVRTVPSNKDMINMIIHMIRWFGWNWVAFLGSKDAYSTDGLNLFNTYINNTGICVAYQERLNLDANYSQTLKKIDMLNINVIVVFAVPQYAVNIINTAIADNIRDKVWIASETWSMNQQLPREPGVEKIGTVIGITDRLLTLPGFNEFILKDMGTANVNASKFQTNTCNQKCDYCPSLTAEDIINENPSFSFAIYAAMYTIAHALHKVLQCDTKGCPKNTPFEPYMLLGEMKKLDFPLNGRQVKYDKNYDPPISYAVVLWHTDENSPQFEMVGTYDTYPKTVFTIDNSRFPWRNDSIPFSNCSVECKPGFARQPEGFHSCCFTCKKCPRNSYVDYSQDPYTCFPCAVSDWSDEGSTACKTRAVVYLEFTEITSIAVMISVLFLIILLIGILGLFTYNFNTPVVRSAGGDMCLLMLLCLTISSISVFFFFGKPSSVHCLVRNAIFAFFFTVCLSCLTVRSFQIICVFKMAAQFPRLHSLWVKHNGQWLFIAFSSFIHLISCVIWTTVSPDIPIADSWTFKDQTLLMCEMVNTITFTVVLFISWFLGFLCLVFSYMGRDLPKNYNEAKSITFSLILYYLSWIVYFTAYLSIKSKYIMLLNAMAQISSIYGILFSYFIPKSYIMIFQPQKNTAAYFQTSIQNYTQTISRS
T2 sequence (Q2MHK9 25-850): T1 sequence (Q2MHK9 25-850)
Method: as §1, §2

[4] = test system: mfT1R2b E260A/mfT1R3; format: cell-based, medaka fish; conditions: 10 mM vs high Cl- buffer
Method: as §1, §3

[5] = target: T1, zfT1R2b/zfT1R3; experiment: Ca2+ mobilization dose-response assay, stable cells expressing zfT1R2b/zfT1R3 with G16gust44
Method: as §1, §2

[6] = target: T1, zfT1R2b/zfT1R3; experiment: Effect of anions, cations and osmotic pressure on cellular responses, cells in 10 mM Cl- buffer, zfT1R2b/zfT1R3; format: cell-based, zebrafish; conditions: coapplied with 2 mM L-Ala, increasing salt concentration
Method: Cells were seeded in 96-well plates coated with ε-poly-L-lysine at approximately 70,000 cells per well. […] Fluorescence changes were monitored at 2 s intervals, as described above. […] Three independent experiments were conducted for each receptor, and representative results are shown as the mean ± SEM (n = 3 replicates). Statistical tests were conducted using KyPlot version 6.0 (KyensLab Inc., Tokyo, Japan). Statistical significance was set at p < 0.05.

[7] = EC50, [Cl-]o=10 mM, unit inferred

Row | Compound | EC50 [1] [µM] | effect of [Cl-]o on sensitivity [2] | EC50 in 10 mM Cl- buffer relative to high Cl- buffer ([3]; 10 mM vs 141.4 mM Cl- buffer) | EC50 [3, 7] [µM] | effect of [Cl-]o on sensitivity [4] | EC50 in 10 mM Cl- buffer relative to high Cl- buffer ([5]; 10 mM vs 141.4 mM Cl- buffer) | EC50 [5, 7] [µM] | [Cl-]o at which sensitivity is clearly reduced ([3]; agonist L-Pro, buffers with 10-141.4 mM Cl-) | response to fixed concentration of L-Ala on coapplication [6] | [Cl-]o range in which a decrease in sensitivity was observed ([5]; agonist L-Ala, buffers with 10-141.4 mM Cl-) [mM]
1 | C[C@H](N)C(=O)O [L-Ala, L-alanine] | 2900 | hardly affected | not influenced | 132 | hardly affected | approximately half | 1290 |  |  | 
2 | [Cl-].[Na+] [NaCl] |  |  |  |  |  |  |  | below 80 mM | decreased | 40 to 141.4
